From ChEMBL document CHEMBL3994651, “Physapubescin, a natural withanolide as a kidney-type glutaminase (KGA) inhibitor” (Bioorg Med Chem Lett, 2017)
Active and inactive are the calls of the source. The calls are words filed in the database; no cut-off is given here.

Columns and labels:
HT-1080 = assay: Cytotoxicity against human HT1080 cells assessed as growth inhibition after 48 hrs by CCK8 assay; format: functional, cell-based; conditions: HT-1080, 48 h
[1] = target: T1, Glutaminase kidney isoform, mitochondrial (Homo sapiens, UniProt O94925); assay: Inhibition of recombinant KGA (unknown origin) using glutamine as substrate
T1 sequence (O94925 whole entry): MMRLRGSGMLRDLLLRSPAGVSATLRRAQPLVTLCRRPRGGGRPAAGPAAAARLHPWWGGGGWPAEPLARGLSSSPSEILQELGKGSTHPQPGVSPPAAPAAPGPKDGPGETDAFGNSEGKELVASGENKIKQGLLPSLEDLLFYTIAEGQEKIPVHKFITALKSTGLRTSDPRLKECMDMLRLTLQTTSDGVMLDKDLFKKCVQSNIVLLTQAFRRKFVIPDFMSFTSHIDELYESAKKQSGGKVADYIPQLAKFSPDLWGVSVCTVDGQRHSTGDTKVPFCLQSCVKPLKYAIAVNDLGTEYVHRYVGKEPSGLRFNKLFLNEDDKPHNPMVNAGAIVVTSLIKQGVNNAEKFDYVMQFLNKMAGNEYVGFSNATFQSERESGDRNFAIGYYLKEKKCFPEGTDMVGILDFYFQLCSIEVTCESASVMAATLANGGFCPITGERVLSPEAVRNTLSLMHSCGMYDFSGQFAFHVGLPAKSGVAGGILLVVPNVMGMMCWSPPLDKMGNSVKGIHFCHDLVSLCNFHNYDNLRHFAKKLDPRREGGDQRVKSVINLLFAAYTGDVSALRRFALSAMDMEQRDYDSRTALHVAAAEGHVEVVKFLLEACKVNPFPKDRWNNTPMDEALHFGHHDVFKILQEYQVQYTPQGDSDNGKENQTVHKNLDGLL

HCC827 = assay: Cytotoxicity against human erlotinib-resistant HCC827 cells assessed as growth inhibition after 48 hrs by CCK8 assay; format: functional, cell-based; conditions: HCC827, 48 h
[2] = target: T2, Glutaminase kidney isoform, mitochondrial (Homo sapiens) (UniProt O94925); assay: Competitive inhibition of recombinant KGA (unknown origin) at 40 uM using varying levels of glutamine substrate measured within 1 to 4 mins
T2 sequence (whole entry): T1 sequence (O94925 whole entry)

L929 = assay: Cytotoxicity against mouse L929 cells assessed as growth inhibition after 48 hrs by CCK8 assay; format: cell-based; conditions: L929, 48 h
Vero = assay: Cytotoxicity against monkey Vero cells assessed as growth inhibition after 48 hrs by CCK8 assay; format: cell-based; conditions: Chlorocebus sabaeus
[3] = target: T1, Glutaminase kidney isoform, mitochondrial; assay: Binding affinity to NT-647-NHS-labelled KGA (unknown origin) after 10 mins by microscale thermophoresis method
L02 = assay: Cytotoxicity against human LO2 cells assessed as growth inhibition after 48 hrs by CCK8 assay; format: cell-based; conditions: L02, 48 h

Compound	IC50 (HT-1080)	IC50 [1]	IC50 (HCC827)	inhibition [2]	IC50 (L929)	IC50 (Vero)	Kd [3]	IC50 (L02)
C[C@@H]([C@H]1CC[C@H]2[C@@H]3CC=C4C[C@@H](O[C@@H]5O[C@H](CO[C@@H]6O[C@H](CO)[C@@H](O)[C@H](O)[C@H]6O)[C@@H](O)[C@H](O)[C@H]5O)C[C@H](O)[C@]4(C)[C@H]3CC[C@]12C)[C@H]1C[C@@](C)(O)[C@](C)(O)C(O)O1 (some centres not stated)	> 200 µM	> 100 µM	> 200 µM					
CO[C@@H]1O[C@@H]([C@@H](C)[C@H]2CC[C@H]3[C@@H]4CC=C5C[C@@H](O[C@@H]6O[C@H](CO[C@@H]7O[C@H](CO)[C@@H](O)[C@H](O)[C@H]7O)[C@@H](O)[C@H](O)[C@H]6O)C[C@H](O)[C@]5(C)[C@H]4CC[C@]23C)C[C@](C)(OC)[C@]1(C)O	> 200 µM	> 100 µM	> 200 µM					
CC(=O)O[C@H]1C[C@H]([C@H](C)[C@H]2C[C@]3(C)O[C@]3(C)[C@H](O)O2)[C@@]2(C)CC[C@H]3[C@@H](C[C@@H]4O[C@]45[C@@H](O)C=CC(=O)[C@]35C)[C@H]12	6.99 µM	9.89 µM	2.76 µM	Active	10.4 µM	12.4 µM	4.95 µM	10.4 µM
C[C@@H]([C@H]1CC[C@H]2[C@@H]3CC=C4C[C@@H](O[C@@H]5O[C@H](CO[C@@H]6O[C@H](CO)[C@@H](O)[C@H](O)[C@H]6O)[C@@H](O)[C@H](O)[C@H]5O)C[C@H](O)[C@]4(C)[C@H]3CC[C@]12C)[C@H]1C[C@](C)(O)[C@](C)(O)C(=O)O1	> 200 µM	> 100 µM	> 200 µM					
C[C@@H]([C@H]1CC[C@H]2[C@@H]3CC=C4C[C@@H](O)C[C@H](O)[C@]4(C)[C@H]3CC[C@]12C)[C@H]1C[C@](C)(O)[C@](C)(O)C(=O)O1	> 200 µM	> 100 µM	> 200 µM					
O=C(Cc1ccccc1)Nc1nnc(CCSCCc2nnc(NC(=O)Cc3ccccc3)s2)s1	47.7 µM		42.4 µM					
C[C@@H]([C@H]1CC[C@H]2[C@@H]3CC=C4C[C@@H](O)C[C@H](O)[C@]4(C)[C@H]3CC[C@]12C)[C@H]1C[C@@](C)(O)[C@](C)(O)C(O)O1 (some centres not stated)	> 200 µM	> 100 µM	> 200 µM					
O=C(Cc1cccc(OC(F)(F)F)c1)Nc1ccc(CCCCc2nnc(NC(=O)Cc3ccccn3)s2)nn1	44.4 µM		51.4 µM					
